The compounds below were run against T1, Itk (Homo sapiens, UniProt Q08881) (assay: ITK Inhibition Assay (AlphaScreen)). Conditions: Ki(app); 100 μM ATP, 2 μM biotinylated SAM68 peptide, 30 nM Itk, 25° C.
T1 sequence (Q08881 1-620): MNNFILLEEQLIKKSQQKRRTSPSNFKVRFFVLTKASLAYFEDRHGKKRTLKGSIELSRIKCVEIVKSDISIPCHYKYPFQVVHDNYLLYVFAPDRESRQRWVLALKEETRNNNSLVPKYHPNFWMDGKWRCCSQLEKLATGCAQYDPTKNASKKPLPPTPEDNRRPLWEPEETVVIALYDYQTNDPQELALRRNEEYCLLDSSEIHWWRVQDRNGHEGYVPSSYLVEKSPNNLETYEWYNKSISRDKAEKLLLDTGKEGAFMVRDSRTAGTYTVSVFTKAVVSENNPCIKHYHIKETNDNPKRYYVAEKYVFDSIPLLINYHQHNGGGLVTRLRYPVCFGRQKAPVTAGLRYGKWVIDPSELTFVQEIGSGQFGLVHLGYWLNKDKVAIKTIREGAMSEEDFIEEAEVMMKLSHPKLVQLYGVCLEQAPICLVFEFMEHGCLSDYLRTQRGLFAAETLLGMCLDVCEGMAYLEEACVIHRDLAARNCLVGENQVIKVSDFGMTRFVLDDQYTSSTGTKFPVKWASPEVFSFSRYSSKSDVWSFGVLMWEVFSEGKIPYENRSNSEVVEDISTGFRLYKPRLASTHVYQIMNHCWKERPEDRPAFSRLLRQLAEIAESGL
Format: biochemical
Protocol: Compounds were screened for their ability to inhibit Itk using an AlphaScreen™ phosphotyrosine assay at Vertex Pharmaceuticals. Assays were carried out in a mixture of 20 mM MOPS (pH 7.0), 10 mM MgCl2, 0.1% BSA and 1 mM DTT. Final substrate concentrations in the assay were 100 μM ATP (Sigma Chemicals) and 2 μM peptide (Biotinylated SAM68 Δ332-443). Assays were carried out at 25° C. and in the presence of Itk (30 nM). An assay stock buffer solution was prepared containing all of the reagents listed above, with the exception of ATP and the test compound of interest. 25 μL of the stock solution was placed in each well of a 96 well plate followed by 1 μL of DMSO containing serial dilutions of the test compound (typically starting from a final concentration of 15 μM) in duplicate (final DMSO concentration 2%). The plate was preincubated for 10 minutes at 25° C. and the reaction initiated by addition of 25 μL ATP (final concentration 100 μM). Background counts were determined by the addition of 5 μL 500 mM EDTA to control wells containing assay stock buffer and DMSO prior to initiation with ATP.
The reaction was stopped after 30 minutes by diluting the reaction 225-fold into MOPS buffer (20 mM MOPS (pH 7.0), 1 mM DTT, 10 mM MgCl2, 0.1% BSA) containing 50 mM EDTA to bring the final concentration of Biotin-SAM68 to 9 nM.
AlphaScreen™ reagents were prepared according to the manufacturers instructions (AlphaScreen™ phosphotyrosine (P-Tyr-100) assay kit, PerkinElmer catalogue number 6760620C). Under subdued lighting, 20 μL of AlphaScreen™ reagents were placed in each well of a white half area 96 well plate (Corning Inc.—COSTAR 3693) with 30 μL of the stopped, diluted kinase reactions. Plates were incubated in the dark for 60 minutes prior to reading on a Fusion Alpha plate reader (PerkinElmer).
After removing mean background values for all of the data points, Ki(app) data were calculated from non-linear regression analysis using the Prism software package (GraphPad Prism version 3.0cx for Macintosh, GraphPad Software, San Diego Calif., USA).

Ki, < 1000 nM:
Nc1ccc2c(=O)n3c(nc(Nc4cc(C5CC5)[nH]n4)c4ccccc43)nc2c1 [Compound I-1]
O=c1c2ccccc2nc2nc(Nc3cc(C4CC4)n[nH]3)c3ccccc3n12 [Compound I-2]
Cc1cc(Nc2nc3nc4cc(N)ccc4c(=O)n3c3ccccc23)[nH]n1 [Compound I-3]
CC(C)c1cc(Nc2nc3nc4ccccc4c(=O)n3c3ccccc23)[nH]n1 [Compound I-7]
O=c1c2ccccc2nc2nc(Nc3cc(C4CCCC4)n[nH]3)c3ccccc3n12 [Compound I-9]
COc1cc2nc3nc(Nc4cc(C5CC5)n[nH]4)c4ccccc4n3c(=O)c2cc1OC [Compound I-10]
COc1cc2nc3nc(Nc4cc(C5CCCC5)n[nH]4)c4ccccc4n3c(=O)c2cc1OC [Compound I-11]
CCCc1cc(Nc2nc3nc4ccccc4c(=O)n3c3ccccc23)n[nH]1 [Compound I-13]
COc1cc2nc3nc(Nc4cc(C(C)C)n[nH]4)c4ccccc4n3c(=O)c2cc1OC [Compound I-14]
O=c1c2ccccc2nc2nc(Nc3cc(C4CC4)n[nH]3)c3c(n12)CCC3 [Compound I-15]
CCOC(=O)Nc1ccc2c(=O)n3c(nc(Nc4cc(C5CC5)n[nH]4)c4ccccc43)nc2c1 [Compound I-16]
O=c1c2ccccc2nc2nc(Nc3cc(C4CC4)n[nH]3)c3c(n12)CCCC3 [Compound I-17]
O=c1c2ccccc2nc2nc(Nc3cc(CCCO)[nH]n3)c3ccccc3n12 [Compound I-20]
COCCCc1cc(Nc2nc3nc4ccccc4c(=O)n3c3ccccc23)n[nH]1 [Compound I-21]
